Article PMC5609566, “Elucidation of antimicrobial activity and mechanism of action by N-substituted carbazole derivatives” (Bioorganic & Medicinal Chemistry Letters, 2017)

Columns and labels:
S. cerevisiae H^+-ATPase = target: T1, S. cerevisiae H^+-ATPase (Saccharomyces cerevisiae, UniProt P05030); assay: NADH-coupled ATPase assay, initial rate of ATP hydrolysis; type: biochemical; details: pH 7, n = 3
T1 construct: transformed with the full-length cDNA of the S. cerevisiae plasma membrane H^+-ATPase isoform PMA1; made in house; host or cells: S. cerevisiae RS72
Protocol: To investigate whether the ATPase inhibition observed was due to compound binding at the ATP binding site, three compounds (5, 7, and 10) were selected for further evaluation in an ATPase activity assay on S. cerevisiae H^+-ATPase-containing membranes in presence of increasing ATP concentrations. The initial rate of ATP turnover was measured spectrophotometrically by an NADH-coupled ATPase activity assay that uses phosphoenolpyruvate to regenerate ATP, as described in Møller et al., 1980.[18]
Fig. 5 Kinetics of H^+-ATPase inhibition by carbazole compounds. The initial rate of ATP hydrolysis catalyzed by S. cerevisiae H^+-ATPase was determined by an NADH-coupled ATPase assay, as described in the Supporting Information. The reaction was initiated by the addition of H^+-ATPase-containing membranes (arrows with “H^+-ATPase”) to a pH 7 buffer containing 5 mM ATP. At the indicated times the respective compounds were added to give the final compound concentrations shown in the figure and a final DMSO concentration of 1.1%.
Fig. 6 Compound dependence of the initial rate of H^+-ATPase activity at 1 mM (triangles) or 10 mM (circles) ATP. The initial rates following compound addition deduced from experiments similar to those shown in Fig. 5 were normalized to the maximal rate obtained at 10 mM ATP in the absence of compound (presence of 1.1% DMSO) and plotted as a function of the compound concentration.
The initial rate of ATP turnover at RT was measured spectrophotometrically at 340 nm by an NADH-coupled ATPase assay that uses phosphoenolpyruvate to regenerate ATP, as described in Møller et al., 1980^4. The reaction buffer contained 17.5 mM MOPS-NaOH pH 7, 44 mM KNO3, 22 mM NaN3, 0.22 mM Na2MoO4, 1 mM phosphoenolpyruvate, 0.27 mM NADH, 83 µg/ml pyruvate kinase, 22 µg/ml L-lactate dehydrogenase, either 1, 5 or 10 mM ATP, and MgSO4 to give a Mg^2+ concentration of 2 mM in excess over the ATP concentration. The ATPase reaction was initiated by the addition of 0.2-0.3 mg/ml of S. cerevisiae Pma1-containing membranes followed by addition of compound (resulting in a final DMSO concentration of 1.1%).

C. albicans (SC5314) = assay: Time-kill assay; type: cell-based
Protocol: (§1) Time-kill studies were carried out to investigate whether the antifungal activity observed for 10 was fungistatic or fungicidal. Given the essential nature of fungal H^+-ATPase, it is anticipated that compounds targeting H^+-ATPase activity will promote fungicidal effects.[21]
(§2) Fig. 7 Time-kill data for C. albicans and C. glabrata cells (1 × 10^5 CFU/ml) incubated with DMSO (final concentration 1%), 1 µM AMB, and 5 or 10 µM of compound 10.
(§3) C. albicans (SC5314) and C. glabrata (ATCC 90030) cells (1 x 10^5 CFU/ml) were incubated in 10 mL RPMI media at 30 °C with gentle agitation (150 rpm) in the presence of amphotericin B (1 µM) or compound 10 at a concentration of 5 or 10 µM. At the indicated time points (0, 1, 3, 5 and 24 h at 30 °C incubation, 150 rpm), 100-μL aliquots were removed, serially diluted (10-fold) in saline (0.9% NaCl), and plated on YPD agar plates. The resulting CFUs were enumerated after incubation at 30 °C for 48 h. Cells treated with DMSO (1%, v/v) served as a control.

C. glabrata (ATCC 90030) = assay: Time-kill assay; type: cell-based
Protocol: as §1, §2, §3

C. albicans cells = assay: Intracellular ATP determination; type: cell-based; details: compound at 20 µM, 30 minutes, mean ± SEM n = 5
From the text: (§4) It was subsequently evaluated whether or not the carbazoles were able to prevent extracellular acidification of the surrounding media by blocking the pumping activity of the H^+-ATPase within fungal cells.[15] […] The H^+-ATPase requires ATP to transport protons out of fungal cells. Consequently, a decrease in intracellular ATP (iATP) levels will indirectly affect H^+-ATPase activity. […] In all cases, iATP levels were […] in C. albicans cells exposed to carbazoles compared to the untreated control. […] This implies that the carbazoles need to pass the fungal membrane to inhibit the H^+-ATPase and 7, 18 and 19 may have reduced membrane permeability.
C. albicans cells were transferred to 3 ml of YPD media and grown overnight at 30 °C and 150 rpm. The cells were pelleted at 2000 × g for 2 min. and washed in PBS (Sigma-Aldrich, catalog number 8537) twice before re-suspension to an OD600 of 0.1. Cell suspension (98 µL) and 2 µl compound in DMSO were incubated for 30 minutes at RT. Forty microliters of this suspension was then transferred to a black 96-well plate containing 40 µl BacTiterGlo reagent (Promega, Madison, WI) and the plate was incubated for 15 minutes in the dark at room temperature. Luminescence was read on a SpectraMax X5 (Molecular Devices, Sunnyvale, CA) plate reader with 10 s shake and 0.5 s integration time. A standard curve containing 10, 100 and 1000 nM ATP was prepared for every experiment.

C. albicans = assay: Extracellular acidification assay; type: cell-based; details: Candida albicans, mean ± SEM n = 3
From the text: as §4
(§5) The ability of S. cerevisiae and C. albicans to acidify the media upon glucose addition was evaluated using the pH sensor dextran (40,000MW)-fluorescein-isothiocyanate as described in Kjellerup et al., 2017^6. Briefly, the cells was starved overnight in 50 mM KCl, pH 6.7 at 4 °C. The cell suspension (Final OD600 of 0.19) was mixed with 1.3 µg/ml dextran (40,000MW)-fluorescein-isothiocyanate, 1.5 % DMSO containing inhibitors and the assay initiated with the addition of 2 % D-(+)-glucose. The rate of media acidification was calculated based on the slope of the fluorescent drop in the first 12 minutes after glucose addition.

S. cerevisiae = assay: Extracellular acidification assay; type: cell-based; details: Saccharomyces cerevisiae, mean ± SEM n = 3
From the text: as §4, §5

Pseudomonas aeruginosa = tested on: Pseudomonas aeruginosa; parameters: method as in PMID 25453797, PMID 27167126; details: cited from earlier work

T1 sequence (P05030 whole entry, canonical isoform): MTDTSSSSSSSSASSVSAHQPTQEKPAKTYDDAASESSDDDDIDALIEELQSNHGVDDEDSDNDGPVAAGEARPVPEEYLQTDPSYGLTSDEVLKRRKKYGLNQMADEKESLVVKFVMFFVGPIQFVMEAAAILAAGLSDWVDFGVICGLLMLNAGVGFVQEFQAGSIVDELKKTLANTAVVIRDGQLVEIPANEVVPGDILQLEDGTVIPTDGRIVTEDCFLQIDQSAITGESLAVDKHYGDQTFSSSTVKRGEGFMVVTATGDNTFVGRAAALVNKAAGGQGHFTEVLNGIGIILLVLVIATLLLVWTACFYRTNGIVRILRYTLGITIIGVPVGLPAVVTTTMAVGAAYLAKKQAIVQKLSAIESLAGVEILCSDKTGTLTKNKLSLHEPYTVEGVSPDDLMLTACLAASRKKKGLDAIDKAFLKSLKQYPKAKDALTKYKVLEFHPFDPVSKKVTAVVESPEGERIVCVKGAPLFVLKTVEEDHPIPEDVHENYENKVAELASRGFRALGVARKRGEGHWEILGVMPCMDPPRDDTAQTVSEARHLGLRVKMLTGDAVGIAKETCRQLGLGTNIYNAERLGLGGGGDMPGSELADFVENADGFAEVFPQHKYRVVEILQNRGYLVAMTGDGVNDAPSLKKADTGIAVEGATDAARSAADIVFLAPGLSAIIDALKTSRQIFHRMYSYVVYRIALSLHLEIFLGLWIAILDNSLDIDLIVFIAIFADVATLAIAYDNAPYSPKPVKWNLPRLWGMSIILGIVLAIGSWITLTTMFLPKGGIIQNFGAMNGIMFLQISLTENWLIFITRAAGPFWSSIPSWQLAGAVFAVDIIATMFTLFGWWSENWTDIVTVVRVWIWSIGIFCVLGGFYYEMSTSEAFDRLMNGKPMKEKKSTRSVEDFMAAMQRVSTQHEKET

Structure (SMILES) | IC50 (S. cerevisiae H^+-ATPase; 1 mM ATP) | IC50 (S. cerevisiae H^+-ATPase; 10 mM ATP) | exposure time after which fungicidal activity was evident (C. albicans (SC5314); 10 µM) | time-kill outcome (fungistatic or fungicidal) (C. albicans (SC5314); 5 or 10 µM, versus 1 µM AMB) | exposure time after which fungicidal activity was evident (C. glabrata (ATCC 90030); C. glabrata) | time-kill outcome (fungistatic or fungicidal) (C. glabrata (ATCC 90030); wild-type C. glabrata, 5 or 10 µM, versus 1 µM AMB) | iATP (C. albicans cells) | IC50 (C. albicans) | IC50 (S. cerevisiae) | activity in bacteria reported previously (Pseudomonas aeruginosa)
OC(Cn1ccnc1)Cn1c2ccc(Cl)cc2c2cc(Cl)ccc21 (centres unmarked) [Compound 5, 1-(3,6-dichloro-9H-carbazol-9-yl)-3-(1H-imidazol-1-yl)propan-2-ol] | 78 ± 14.9 µM | 60 ± 14.2 µM | – | – | – | – | – | – | – | –
CCC(C)NCC(O)Cn1c2ccc(Cl)cc2c2cc(Cl)ccc21 (centres unmarked) [Compound 10, 1-(sec-butylamino)-3-(3,6-dichloro-9H-carbazol-9-yl)propan-2-ol] | 4.5 ± 0.5 µM | 6.3 ± 1.2 µM | 1 h | cell death comparable to that observed for amphotericin B | 3 h | cell death comparable to that observed for amphotericin B | 491 ± 79 nM | 2.4 ± 1.2 µM | 2.1 ± 1 µM | membrane damaging activity
CN(C)CCCCn1c2ccc(Cl)cc2c2cc(Cl)ccc21 [Compound 15] | – | – | – | – | – | – | 53 ± 10 nM | 13.1 ± 7.2 µM | 16.2 ± 2.6 µM | –
CN1CCN(CC(O)Cn2c3ccc(Cl)cc3c3cc(Cl)ccc32)CC1 (centres unmarked) [Compound 8, 1-(3,6-dichloro-9H-carbazol-9-yl)-3-(4-methylpiperazin-1-yl)propan-2-ol] | – | – | – | – | – | – | 70 ± 25 nM | 9.7 ± 6.8 µM | 11.1 ± 2.1 µM | –
OC(CN1CCOCC1)Cn1c2ccc(Cl)cc2c2cc(Cl)ccc21 (centres unmarked) [Compound 7, 1-(3,6-dichloro-9H-carbazol-9-yl)-3-morpholinopropan-2-ol] | 29.7 ± 6.7 µM | 16.8 ± 1.7 µM | – | – | – | – | 93 ± 45 nM | 22.2 ± 12.9 µM | 33.3 ± 0.6 µM | –
CN1CCN(CCCn2c3ccc(Cl)cc3c3cc(Cl)ccc32)CC1 [Compound 16, 3,6-dichloro-9-(3-(4-methylpiperazin-1-yl)propyl)-9H-carbazole] | – | – | – | – | – | – | 235 ± 70 nM | 9.5 ± 2.5 µM | 7.3 ± 0.4 µM | –
